The text below walks through data of publication PMC4226669, “Anti-cancer potency of tasquinimod is enhanced via albumin-binding facilitating increased uptake in the tumor microenvironment” (Oncotarget, 2014).

One may read the Kd as the free concentration of one partner at which half of the binding sites on the other are occupied at equilibrium, for simple one-to-one binding.

For series [1], the target named is T1, human albumin (Homo sapiens, UniProt P02768).
T1 construct: purchased Sigma
Briefly: Equilibrium dialysis binding to human albumin. The following applies: pH 7.4, equilibrium dialysis, read-out: equilibrium dissociation constant (Kd). As to the method:
(§1) To determine whether albumin is the tasquinimod binding protein in plasma, albumin was removed from human plasma using an albumin depletion kit (Thermo Scientific cat # 85160). The albumin depleted plasma was then tested for its protein binding as described above. The dissociation constant (kd) for tasquinimod binding was determined based upon equilibrium dialysis of a mixture of 4mg/ml of the species (i.e., human, bovine, and mouse) specific albumin obtained from Sigma with 2μM of ^14C-labeled tasquinimod in PBS pH 7.4 buffer using a 96-well equilibrium dialyzer™ (Harvard Apparatus, Holliston,MA).
On the technique in general: In equilibrium dialysis free small molecules cross a membrane that holds back macromolecules.

The conditions of series [2]: cited from earlier work.
The test system of series [3] is metastatic, castrate resistant prostate cancer. The arrangement: method as in PMID 21931019, PMID 24255071. As to conditions: vs placebo; cited from earlier work.
Details of series [4]: method as in PMID 16955399. The following applies: adult male mice, 0.1-30 mg/kg via gavage or drinking water; cited from earlier work.
A short description of series [5]: Drug binding in 10% FBS supplemented media. The class given is in vitro ADME, bovine. The following applies: 1 μM in 10% FBS supplemented media. The text has this: Since tasquinimod binds to both S100A9 and HDAC4 proteins with high affinities and since S100A9 has both an extracellular and intracellular location while HDAC4 in prostate cancer cells is in the cell nucleus, it is important to evaluate whether tasquinimod is capable of entering cells or whether it only associates with extracellular plasma membrane components. To resolve this question, an in vitro approach was taken using three human prostate cancer cells (i.e., CWR-22Rv1, LAPC-4, and LNCaP) and human umbilical vein endothelial (HUVEC) cells. When 1 μM tasquinimod is added to 10% fetal bovine serum (FBS) supplemented media, there is sufficient albumin to bind 80% of the drug so that the protein-free concentration of tasquinimod in such media is only 0.2 μM. Preliminary studies documented that even after 48 hours of exposure of HUVEC and each of the 3 prostate cancer cell lines to 1 μM at confluent cell density, there was < 15% metabolism of the parental tasquinimod drug with the major metabolite being the O-demethylated quinoline compound.

The test system of series [6] is CWR-22Rv1 human prostate cancer cells. Put plainly: Plasma membrane associated vs nuclear drug uptake in CWR-22Rv1 cells. The class given is cell-based. How it is done: Based upon these preliminary validation, cells were incubated in 10% fetal bovine serum (FBS) supplemented media containing 1μM ^14C-labeled tasquinimod for <10 minutes. When these cells are rapidly (< 20sec) separated from the media by vacuum filtration onto glass microfiber filter and the filters rapidly (< 20sec) washed, radiolabeled drug is retained by the washed cells and this radioactivity can be used to calculate the total cell associated concentration of drug (CAt). If instead after the washes, media are added above the filters and allowed to remain for a 15 minutes “wash out” period before being vacuumed off and subsequently rapidly (< 20sec) washed with drug free media, […]. […] Thus, total plasma membrane associated drug concentration (PMt) is determined by subtracting the ICt from the CAt value.
To determine the total nuclear concentration of drug (Nt), a modified protocol was needed to allow the rapid lyses of cells and rapid isolation of cell nuclei by differential centrifugation. This could not be accomplished using the usual method of detergent lyses because detergents extract bound drug due to its lipophilicity. Therefore, a detergent free protocol using nitrogen cavitation was developed to rapidly lyse cells and allow the rapid isolation of nuclei via differential centrifugation. Using this cavitation protocol, it was documented that within 1 hour, total nuclear drug concentration (Nt) equals that of the protein-free drug concentration in the media (i.e., 0.2 μM), and that after 4 hours equals PMt (i.e., see Figure 3B, right panel for representative results for the CWR-22Rv1 cells). From 8 hours onward, Nt is more than 10 fold higher than the free and 2 fold higher than the total drug concentration in the media, Figure 3B, right panel. For example at 24 hours post exposure to 1 μM tasquinimod in 10% FBS containing media, the Nt is 2.4 ± 0.3 μM, Figure 3B, right panel. At this 24 hours period, total radioactive drug in isolated nuclei from all 3 prostate cancer lines, as well as HUVEC cells (i.e., nuclear concentration in these 4 lines ranged from 2.2-3.1 μM) was extracted with acetonitrile and the extracts analyzed by HPLC. […] To resolve this, nuclear uptake was determined 24 hours post exposure to 1 μM tasquinimod in serum free media. These studies again documented that nuclear tasquinimod concentration in these 4 cell lines ranged from 2.5-3.5 μM documenting that binding to albumin is not required for cell uptake.
A rapid filtration method was developed and validated to measures the kinetics of tasquinimod cell uptake on a series of human cell lines. To do this, exponentially growing cells in a tissue culture flask are trypsinized, and the number of single cells counted and their average diameter determined electronically using Cellometer AutoT4 (Nexcelom, Lawrence, MA). Then multiple replicates (N=3-6) of 10^7 cells per time point were incubated from 5 minutes to 48 hours. at 37°C in 1ml of tissue culture media containing 10% fetal bovine serum (FBS) plus 1μM ^14C-labeled tasquinimod. The cells in each replicate incubation were then rapidly separated from the tasquinimod containing media by vacuum filtration onto a 24mm Whatman GF/C glass microfiber filter (GE Healthcare Sciences, Piscataway, NJ) using a Millipore 1225 sampling manifold (Millipore, Billerica MA). The filters are then rapidly washed and filtered (<20 seconds per wash) 3 times with 2mls of drug free FBS containing tissue culture media. Half of the replicate filters are then dried overnight and counted for determination of the total cell associated amount of drug (i.e., plasma membrane associated plus intracellular uptake). To the remaining half of the replicate filters, 2mls of drug free FBS containing tissue culture media is added above the filters and allowed to remain there for 15 minutes before being filtered off. […]

Series [7] has as its target human serum albumin (HSA) (Homo sapiens, UniProt P02768). Put plainly: Reversibility of albumin binding (dialysis against drug free HSA). As to conditions: after 4 hours of dialysis, pH 7.4. As to the method: In additional studies, 200 μg (i.e., 3nmol) of human serum albumin (HSA) was incubated with 400 pmoles of ^14C-labeled tasquinimod at pH 7.4 so that 50% of the drug is protein bound. This solution was then placed in a dialysis chamber opposite an equal volume of a solution containing 8 mg (i.e., 120 nmoles) of drug free HSA at pH 7.4 separated by a membrane which is permeable to unbound free tasquinimod, but impermeable to albumin. The 8 mg of HSA in the initial drug free side was chosen because this amount of albumin can bind 98% of the drug when exposed to 400 pmoles of tasquinimod.

In series [8] the target is T2, bovine albumin (Bos taurus, UniProt P02769).
T2 construct: purchased Sigma
T2 sequence (P02769 25-607): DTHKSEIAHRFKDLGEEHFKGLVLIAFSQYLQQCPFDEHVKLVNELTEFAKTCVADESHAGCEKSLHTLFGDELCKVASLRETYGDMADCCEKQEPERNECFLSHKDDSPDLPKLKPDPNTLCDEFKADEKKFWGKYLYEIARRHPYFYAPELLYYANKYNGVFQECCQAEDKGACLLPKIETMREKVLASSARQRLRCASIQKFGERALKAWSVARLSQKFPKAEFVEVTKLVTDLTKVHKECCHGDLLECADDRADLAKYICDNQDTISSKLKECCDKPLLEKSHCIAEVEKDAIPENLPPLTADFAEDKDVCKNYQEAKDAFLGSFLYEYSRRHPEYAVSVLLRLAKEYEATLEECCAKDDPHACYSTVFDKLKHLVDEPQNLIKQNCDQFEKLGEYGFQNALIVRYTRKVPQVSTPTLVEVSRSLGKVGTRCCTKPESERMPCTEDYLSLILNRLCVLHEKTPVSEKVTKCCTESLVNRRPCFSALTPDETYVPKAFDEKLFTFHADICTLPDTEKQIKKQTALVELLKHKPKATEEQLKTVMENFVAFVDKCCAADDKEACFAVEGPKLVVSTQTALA
Put plainly: Equilibrium dialysis binding to bovine albumin. As to conditions: pH 7.4, equilibrium dialysis, read-out: equilibrium dissociation constant (Kd). As to the method: as §1

Like-named read-outs stand apart in the source and are kept apart here.

T1 sequence (P02768 25-609): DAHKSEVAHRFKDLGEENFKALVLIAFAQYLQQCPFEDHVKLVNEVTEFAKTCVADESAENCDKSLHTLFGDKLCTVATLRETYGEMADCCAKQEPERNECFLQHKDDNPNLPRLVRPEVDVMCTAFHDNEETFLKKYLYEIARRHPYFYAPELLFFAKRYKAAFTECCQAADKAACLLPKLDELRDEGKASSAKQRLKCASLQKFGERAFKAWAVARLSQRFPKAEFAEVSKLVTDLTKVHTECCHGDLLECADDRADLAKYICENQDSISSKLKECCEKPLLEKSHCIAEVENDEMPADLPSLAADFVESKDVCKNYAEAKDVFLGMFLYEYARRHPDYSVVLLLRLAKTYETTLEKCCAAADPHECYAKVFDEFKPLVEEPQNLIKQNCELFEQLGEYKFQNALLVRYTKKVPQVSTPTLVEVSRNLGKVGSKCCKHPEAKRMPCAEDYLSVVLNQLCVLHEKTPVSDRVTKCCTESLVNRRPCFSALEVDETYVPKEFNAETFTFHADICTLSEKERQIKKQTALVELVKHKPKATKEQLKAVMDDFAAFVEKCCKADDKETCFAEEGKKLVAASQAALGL
Chain of human serum albumin (HSA) (P02768 25-609): as above

As to `COc1cccc2c1c(O)c(C(=O)N(C)c1ccc(C(F)(F)F)cc1)c(=O)n2C` [Tasquinimod], in series [1], the Kd was determined as 24 ± 4 µM. For the same compound, the “blood (plasma) level maintained” value in series [2] (chronic daily oral dosing, 1 mg (0.5-1 mg/day), clinical trials) was ~ 0.5 μM. For the same compound, in series [2] (clinical trials), the plasma half-life was 40 ± 16 h and the “plasma levels at which systemic anti-cancer potency occurs” value was 0.5 to 1 µM. The “bioavailability and oral absorption” value in series [2] (daily dose as liquid or gelatin capsule) is “excellent”. The median progression-free survival entry in series [3] is on record as “doubles”. Further, the “bioavailability and oral absorption” value in series [4] is reported as “excellent”. Moreover, in series [5], the “drug bound by albumin in media” value is 80% and the “protein-free concentration in media” value was found to be 0.2 µM. Besides, the “time to steady state PMt” value in series [6] (1 μM in 10% FBS media) lay in the range of 5 to 10 min. Besides, the “total plasma membrane associated drug concentration (PMt), steady state” value in series [6] (1 μM in 10% FBS media, maintained to 48 hours) was ~ 1 μM. The “total nuclear drug concentration (Nt)” value in series [6] (24 hours post exposure to 1 μM in 10% FBS containing media) was determined as 2.4 ± 0.3 µM. For the same compound, in series [6] (from 8 hours onward), the “Nt relative to free drug concentration in the media” value is recorded as “more than 10 fold” and the “Nt relative to total drug concentration in the media” value was over 2 fold. Besides, the “total nuclear drug concentration (Nt)” value in series [6] (within 1 hour, 1 μM in 10% FBS media) is 0.2 µM. Besides, the “initial protein bound tasquinimod released” value in series [7] stood at 65 ± 9%. Besides, in series [8], the Kd is 31 ± 6 µM.
